Values after ≈ are worked out from the molar mass of the structure shown.

Assay [1] has as its system Clostridium spp. Briefly: activity against Clostridium spp. Format: cell-based.
For assay [2], the system named is MRSA (ATCC #33591). In words: rabbit ischemic wound model. Particulars: topical daily to day 14; p<0.001 vs control, p<0.03 vs mupirocin. Format: in vivo, New Zealand white rabbits. The procedure: 5-(2,5-bis(4-chloro-2-isopropylphenyl)thiophen-3-yl)-1H-tetrazole was tested for its efficacy against infection in the rabbit ischemic wound model, the gold standard animal model mimicking human DUI. In this model, the ear is made ischemic by division of central and rostral nutrient arteries of New Zealand white rabbits. New Zealand White rabbits were employed for this study and their husbandry and experimental manipulation adhered to standard Guides for the Care and Use of Laboratory Animals (2001). An incision was made to the level of bare cartilage at the base of the ear and followed by injection intradermally with epinephrine to obtain vasoconstriction and aid with skin detachment. Skin is separated from the underlying perichondrium and removed with a 6.0 mm aortic biopsy punch. Food and water were given ad libidum and animals were acclimatized for 7 days with photoperiods of alternating 12 h light and dark provided, along with analgesic (BUPRENEX™ (buprenorphine) 0.02 mg/kg sc) and anaesthesia (isoflurane (0.5-5% with oxygen carrier 0.5-2 L/min) during procedures.
An ischemia wound healing model was conducted surgically. Each wound was inoculated with 50 μl of 2×10^7 CFU/ml MRSA (ATCC #33591) and dressed. After one day, wounds were treated with either 50 μl control cream containing vehicle (N=4), 50 μl containing mupirocin (N=4), or 50 μl cream containing 5-(2,5-bis(4-chloro-2-isopropylphenyl)thiophen-3-yl)-1H-tetrazole (N=8) daily. Clinical observations were performed on days 1, 3, 5, 7, 10 and 14. Wounds were assessed and observations recorded using the Draize scoring system. Digital photographs of each wound were obtained and documented.
On day 14 post-wounding, under anesthesia, the animals were euthanized with an intravenous injection of BEUTHANASIA-D™ ([…] and phenytoin sodium) at a dosage of 150 mg/kg of body weight. Specimens including the entire wound, along with approximately 2-3 mm of the normal unwounded skin margins were harvested. Each ear wound specimen was sectioned into halves. For one half of the wound, the wound was placed into a container with 10% neutral buffered formalin and processed for routine histological evaluation. Wound organization was scored for four parameters on a scale of 0-4 at the wound site for inflammation, granulation, angiogenesis, and epithelialization. Wounds were characterized in a blinded manner by a board certified member of the College of American Pathologists. The other half of the wound was weighed (mg) in a sterile Petri dish, then placed in a sterile disposable tissue grinder and homogenized for quantitative microbiology. The tube containing the ground tissue sample was filled with 5 ml 0.85% sterile saline. Five 1:10 serial dilutions were then prepared with 0.5 ml aliquots and 4.5 ml of sterile saline per aliquot. Subsequently, 0.1 ml of the homogenate and each dilution was drop plated on trypticase soy agar and placed in an incubator at 37° C. The number of viable organisms per wound was recorded as cfu/gram of tissue.

Assay [3] has as its system S. aureus MRSA ATCC43300. Briefly: broth microdilution MIC (CLSI). To be noted: Staphylococcus aureus, read-out: Antibacterial activity (MIC). Format: cell-based. As for the experimental part:
(§1) Using a broth microdilution assay according to Clinical Laboratory Standards Institute (CSLI) guidelines, we tested 5-(2,5-bis(4-chloro-2-isopropylphenyl)thiophen-3-yl)-1H-tetrazole (“Test Article” in below table) to establish MICs against a broad range of MDR bacteria and noted substantive activity versus methicillin-resistant Staphylococcus aureus (MRSA), vancomycin-resistant Enterococcus (VRE) and Streptococcus spp. Antimicrobial susceptibility testing was performed by a microdilution broth assay according to CLSI guidelines. The inoculum was prepared from stationary-phase cultures diluted in water. Microtiter plate wells received aliquots of 100 μL of the compound diluted in Mueller-Hinton II cation adjusted media. The final concentration of compound typically ranged from 250 to 0.125 μg/ml in serial two-fold dilutions. In addition to the test compound, growth and sterility controls were included, along with DMSO vehicle control rows. The microtiter plates were inoculated with 5×10^5 bacteria and incubated overnight at 35° C. in a humidified atmosphere.

Assay [4] deals with S. aureus MRSA MISA MU3 NRS2. In words: broth microdilution MIC (CLSI). Format: cell-based. Particulars: Staphylococcus aureus, read-out: Antibacterial activity (MIC). The procedure: as §1
A general note: In broth dilution the organism is exposed to a series of concentrations in liquid medium.

Assay [5] has as its system S. aureus MRSA MISA MU50 NRS1. Briefly: broth microdilution MIC (CLSI). To be noted: Staphylococcus aureus, read-out: Antibacterial activity (MIC). Format: cell-based. As for the experimental part: as §1
In assay [6] the test system is S. aureus MRSA USA100 epidemic strain. Briefly: broth microdilution MIC (CLSI). Format: cell-based. Particulars: Staphylococcus aureus, read-out: Antibacterial activity (MIC). The procedure: as §1
Assay [7] concerns S. aureus MRSA USA200 epidemic strain. In words: broth microdilution MIC (CLSI). Format: cell-based. To be noted: Staphylococcus aureus, read-out: Antibacterial activity (MIC). As for the experimental part:
as §1

Assay [8] relates to S. aureus MRSA USA300 epidemic strain. In words: broth microdilution MIC (CLSI). Format: cell-based. Particulars: Staphylococcus aureus, read-out: Antibacterial activity (MIC). The procedure: as §1
Assay [9] has as its system S. aureus MRSA clinical isolate ciprofloxacin resistant. In words: broth microdilution MIC (CLSI). Particulars: Staphylococcus aureus, MRSA, read-out: Antibacterial activity (MIC). Format: cell-based. The procedure:
as §1

Assay [10] has as its system S. aureus MRSA clinical isolate from Manchester. Briefly: broth microdilution MIC (CLSI). Format: cell-based. Particulars: Staphylococcus aureus, MRSA, read-out: Antibacterial activity (MIC). The procedure: as §1
Assay [11] concerns S. aureus MRSA clinical isolate multi resistant. Briefly: broth microdilution MIC (CLSI). Format: cell-based. To be noted: Staphylococcus aureus, MRSA, read-out: Antibacterial activity (MIC). As for the experimental part:
as §1

Assay [12] concerns S. aureus MRSA clinical isolate penicillin and erythromycin resistant. In words: broth microdilution MIC (CLSI). Format: cell-based. To be noted: Staphylococcus aureus, MRSA, read-out: Antibacterial activity (MIC). The procedure: as §1

Consider `CC(C)c1cc(Cl)ccc1-c1cc(-c2nnn[nH]2)sc1-c1ccc(Cl)cc1C(C)C` [5-(4,5-bis(4-chloro-2-isopropylphenyl)thiophen-2-yl)-1H-tetrazole, reference compound], for which the outcome in assay [1] was inactive.
Turning to `C/C(=C\C(=O)OCCCCCCCCC(=O)O)C[C@@H]1OC[C@H](C[C@@H]2O[C@H]2[C@@H](C)[C@H](C)O)[C@@H](O)[C@H]1O` [mupirocin, reference compound], the “percent wound contraction over time (FIG. 1)” value in assay [2] was “control group had less wound contraction than either treated group”.
What is called MIC is the lowest concentration found to suppress growth. Turning to `CN[C@H](CC(C)C)C(=O)N[C@H]1C(=O)N[C@@H](CC(N)=O)C(=O)N[C@H]2C(=O)N[C@H]3C(=O)N[C@H](C(=O)N[C@H](C(=O)O)c4cc(O)cc(O)c4-c4cc3ccc4O)[C@H](O)c3ccc(c(Cl)c3)Oc3cc2cc(c3O[C@@H]2O[C@H](CO)[C@@H](O)[C@H](O)[C@H]2O[C@H]2C[C@](C)(N)[C@H](O)[C@H](C)O2)Oc2ccc(cc2Cl)[C@H]1O` [vancomycin, reference compound], the minimum inhibitory concentration (MIC) in [3] was determined as 0.5 µg/mL (≈ 0.345 µM); in [4], 1 µg/mL (≈ 0.69 µM); in [5], 4 µg/mL (≈ 2.76 µM); in [6], 1 µg/mL (≈ 0.69 µM); in assay [7], 0.5 µg/mL (≈ 0.345 µM); in [8], 1 µg/mL (≈ 0.69 µM). Moreover, the MIC in assay [9] amounted to 0.5 µg/mL (≈ 0.345 µM); in assay [10] it was 0.5 µg/mL (≈ 0.345 µM); in [11], 0.5 µg/mL (≈ 0.345 µM); in assay [12], 1 µg/mL (≈ 0.69 µM).

These data come from patent US12358902B2, “5-(2,5-bis(4-chloro-2-isopropylphenyl)thiophen-3-yl)-1H-tetrazole for the topical treatment of bacterial infections” (DENOVAMED INC., priority 2017, dated 2025).
